From PubChem BioAssay (NCI)
“And” between values parts separate entries of the source, which are not always exact repeats. Equal values may be shown once.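 Where inhibition never reached the appropriate level, the endpoint shown equals the highest concentration tested. Otherwise, values were interpolated linearly from a five-concentration, 48-hour dose response in 96-well plates. GI50 marks 50% less growth. TGI is the concentration that stops growth completely.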

Assays:
Assay in all cases: inhibition of tumour cell growth, NCI panel, 48 h
SNB-75 CNS = system: SNB-75 CNS
SK-MEL-28 melanoma = system: SK-MEL-28 melanoma
SF-539 CNS = system: SF-539 CNS
K-562 leukemia = system: K-562 leukemia
BT-549 breast = system: BT-549 breast
NCI-H522 lung = system: NCI-H522 lung
A549 NSCLC = system: A549 NSCLC
UACC-257 melanoma = system: UACC-257 melanoma
DU-145 prostate = system: DU-145 prostate
MDA-MB-435 = system: MDA-MB-435

Structure (SMILES)	GI50 (SNB-75 CNS) [nM]	TGI (SNB-75 CNS)	GI50 (SK-MEL-28 melanoma) [nM]	TGI (SK-MEL-28 melanoma)	GI50 (SF-539 CNS) [nM]	TGI (SF-539 CNS)	GI50 (K-562 leukemia) [nM]	TGI (K-562 leukemia)	GI50 (BT-549 breast) [nM]	TGI (BT-549 breast) [µM]	GI50 (NCI-H522 lung)	TGI (NCI-H522 lung)	GI50 (A549 NSCLC) [µM]	TGI (A549 NSCLC) [µM]	GI50 (UACC-257 melanoma) [µM]	TGI (UACC-257 melanoma)	GI50 (DU-145 prostate) [µM]	TGI (DU-145 prostate) [µM]	GI50 (MDA-MB-435) [nM]	TGI (MDA-MB-435) [µM]
O=c1[nH]c2nc(NC3CCOCC3)ncc2cc1Oc1ccc(F)cc1F	> 8270	> 25 µM	> 25000	> 25 µM	> 25000	> 25 µM	> 25000	> 25 µM	> 25000	> 25	> 25000 nM	> 25 µM	> 25	> 25	> 25	> 25 µM	> 25	> 25	> 25000	> 25
COc1cc(NC(=O)CCSc2nc3ccc(C)cc3c(=O)n2Cc2ccccc2)cc(OC)c1OC	1900	4.78 µM	6300	> 100 µM	2500	7.26 µM	> 100000	> 100 µM	5020	> 100	11300 nM	76.7 µM	8.08	> 100	4.96	> 100 µM	66	> 100	> 100000	> 100
CC(C)=CCC(OC(=O)C=C(C)C)C1=CC(=O)c2c(O)ccc(O)c2C1=O (stereo not drawn)	3870	16.3 µM and 13.7 µM	1010	2.52 µM and 2.67 µM	2020	4.46 µM and 4.93 µM	70.9	1.13 µM and 1.35 µM	590	1.98	414 nM and 104 nM	1.84 µM and 0.231 µM	–	18.7	1.51	4.15 µM and 2.5 µM	1.72	3.92	2090	4.77
COc1ccc(C(O)c2cc3c(N)c(C(=O)Nc4cccc(Cl)c4)sc3nc2C)cc1 (stereo not drawn)	220	16.6 µM	1230	55 µM	858	–	1030	> 37.5 µM	2090	> 38.5	1050 nM	> 41.9 µM	1.45	> 39.7	8.6	81 µM	1.16	> 22	37.1	0.262
c1cncc(CNCc2cccnc2)c1	–	> 100 µM	–	> 100 µM	–	> 100 µM	–	> 100 µM	–	> 100	–	> 100 µM	–	> 100	–	> 100 µM	–	> 100	–	> 100
COc1cc(C)c(C2NC(=O)c3ccccc3N2)cc1C (stereo not drawn)	–	0.496 µM	–	> 100 µM	–	0.734 µM	–	> 52.2 µM	–	71.4	–	0.713 µM	–	> 100	–	> 100 µM	–	11.6	–	0.209
C1=C2CCCC3=Cc4ccccc4OC23Oc2ccccc21	1640	5.84 µM	5220	> 100 µM	1920	5.01 µM	3540	> 100 µM	3730	73.7	2300 nM	6.2 µM	5.87	> 100	5.49	> 100 µM	3.73	69.1	1640	4.68
CCCCCCCCNCCC[C@@H](C)[C@H]1CC[C@H]2[C@@H]3[C@H](OCCCN)C[C@H]4C[C@H](OCCCN)CC[C@]4(C)[C@H]3C[C@H](OCCCN)[C@]12C	2520	11.6 µM	776	2.78 µM	810	2.6 µM	2840	11.5 µM	1430	4.35	2480 nM	7.16 µM	2.43	8.81	2.89	8.64 µM	1.14	2.35	768	2.5
O=C(c1ccccc1)c1c(NCC(O)CN2CCOCC2)n(Cc2ccccc2)c(=O)n(Cc2ccccc2)c1=O (stereo not drawn)	> 36800	> 81.7 µM	> 64100	> 100 µM	> 68000	> 100 µM	42200	> 100 µM	29300	> 100	38900 nM	> 100 µM	35.7	> 100	55.8	> 100 µM	35.2	> 77.5	35200	> 100
Cc1c2cc(Cl)c3ccccc3c2c[n+]2ccccc12	2310	12.9 µM	1800	4.87 µM	1710	9.35 µM	2980	27.2 µM	1210	5.4	2130 nM	12.4 µM	8.54	> 100	4.27	17.9 µM	12.8	31.6	4100	17.9
O=C(NCCc1ccccn1)OCc1nc2nc(Cl)nc(N3CCOCC3)c2[nH]1	2420	15.5 µM	1670	3.32 µM	1500	2.85 µM	2070	14.3 µM	2220	6.83	1930 nM	4.96 µM	7.16	24.9	1.87	5.26 µM	1.57	3.04	1330	2.78
CC1=Nc2ccccc2/C1=C\c1c(C)[nH]c2ccccc12	–	71.5 µM	–	37.9 µM	–	77.3 µM	–	> 100 µM	–	15.1	–	23.6 µM	–	73.6	–	30.3 µM	–	31.2	–	26.7
CC1=Cc2ccc(C)cc2C(=O)C1=O	–	21.8 µM	–	52.9 µM	–	14.9 µM	–	> 23.9 µM	–	49.1	–	4.15 µM	–	50.2	–	15.8 µM	–	35.3	–	4.27
C=C1CCC2(C#N)[C@H]3[C@H](CC[C@@H]2C)[C@@H](C)C[C@@H](CC(C)(C)NC(=O)CN2CCC2=O)[C@H]13 (stereo partly drawn)	1570	10.2 µM	10200	23 µM	5980	19.4 µM	3690	53.1 µM	2960	17.3	13500 nM	45.6 µM	13.3	50.4	5.4	26.7 µM	12.1	41.1	6190	23.8
